This is an account of results in paper PMC8892231 (EMBO Reports, 2021).

One assay relates to qC10ORF99 promoter. Put plainly: Luciferase reporter assay, Japanese quail C10ORF99 promoter in HEK293 cells. The class given is cell-based. Particulars: promoter-pGL4.14 (300 ng), sodium propionate or sodium acetate in serum-free medium for 12 h, normalized to β-galactosidase, vs parental PGL4.14 plasmid, n = 3.
Another assay concerns cGPR15‐A283L. Put plainly: Intracellular calcium assay, reverse mutant cGPR15‐A283L. The format is cell-based, Latimeria chalumnae. The settings on record: CHO cells, Fluo-4 calcium assay; peptide 10 nM.
A further assay concerns cGPR15‐P246K. Put plainly: Intracellular calcium assay, reverse mutant cGPR15‐P246K. The format is cell-based, Lepisosteus oculatus/Scleropages formosus. Particulars: CHO cells, Fluo-4 calcium assay; peptide 10 nM.

For the molecule `CC(=O)O` [acetate], the “luciferase activity of the promoter construct” value with qC10ORF99 promoter was “significantly increased”. As for `CCC(=O)O` [propionate], the “luciferase activity of the promoter construct” value with qC10ORF99 promoter was “significantly increased”. In the case of AAPSPLFVPGPLPQL [qC10ORF99], the “activation of the mutant receptor based on Ca2+ measurements” value in the assay on cGPR15‐A283L and with cGPR15‐P246K was “activated” throughout.
